Laboratory results: patent US8637516B2 (IRM LLC, priority 2010, dated 2014)
pIC50: −log10 of the molar value. Read-outs that look alike come from different tables or passages of the source.

Columns and labels:
[1] = Rat PK (PO 10 mg/kg, IV 3 mg/Kg); format: in vivo; conditions: for F / clearance / half-life / Vd / AUC / Cmax: Rat; for F / AUC / Cmax: PO 10 mg/kg, MC/Tween 80 suspension; for F / clearance / half-life / Vd: IV 3 mg/Kg; for clearance / half-life / Vd / AUC / Cmax: in vivo; for Vd: read-out: Vss
parental Ba/F3 cells = experiment: Proliferation of parental (untransformed, wt) Ba/F3 cells (BAF3/WT); format: cell-based, murine; conditions: Mus musculus, Table 1, parental cells with IL3, 48 hours
In short: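 Parental Ba/F3 cells, maintained with mouse IL-3, were plated at 700 cells/well with compound (0.17 nM to 10 uM, 3-fold dilutions). After 48 h at 37 °C, proliferation was read by Bright-Glo luminescence.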

[2] = target: T1, Ba/F3 cells transformed with human Tel-TrkA (Homo sapiens, UniProt P04629); experiment: Proliferation of Ba/F3 cells transformed with human Tel-TrkA (Ba/F3 Tel-TrkA); format: cell-based
T1 construct: expressed in transfected cells; host or cells: Ba/F3 murine hematopoietic progenitor cells (luciferase expressing); the other entry of the earlier key: ETV6 (P41212, Transcription factor ETV6)
Text: Compound dilutions were made in 384 well plates.
The emited luminiscence is quantified using ViewLux (PerkinElmer).

[3] = Table 1, 48 hours, Bright Glo luminescence, read-out: Ba/F3 Tel-TrkA

T1 sequence (P04629 510-796 limits assumed): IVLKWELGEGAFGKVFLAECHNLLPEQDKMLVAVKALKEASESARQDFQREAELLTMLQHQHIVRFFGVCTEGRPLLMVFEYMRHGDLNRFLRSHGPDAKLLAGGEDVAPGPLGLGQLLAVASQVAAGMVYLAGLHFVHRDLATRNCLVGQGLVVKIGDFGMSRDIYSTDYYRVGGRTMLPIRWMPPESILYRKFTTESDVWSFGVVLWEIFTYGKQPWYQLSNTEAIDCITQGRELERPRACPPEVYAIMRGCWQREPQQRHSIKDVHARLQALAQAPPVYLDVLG

SMILES: NC(=O)c1cnc2ccc(N3C[C@@H](F)C[C@@H]3c3cc(F)ccc3F)nn12 [X-242]
- F [1]: 28.2%
- clearance [1]: 18.4 mL/min/kg
- half-life [1]: 74.4 min
- Vd [1]: 1.58 L/kg
- AUC [1]: 7.09 µM·h
- Cmax [1]: 1730 nM
- AUC compared with compound #3 of WO2010/033941 ([1]; in words): significant and unexpected increases
- Cmax compared with compound #3 of WO2010/033941 ([1]; in words): significant and unexpected increases
- pIC50 (parental Ba/F3 cells): 5.61
- pIC50 [2, 3]: 9.30
- pIC50 ([2]; Table 2, read-out: Ba/F3_Te1-Trk-A): 9.30

SMILES: CC(=O)Nc1cnc2ccc(N3CCC[C@@H]3c3cc(F)ccc3F)nn12 [reference compound]
- F [1]: 1.5%
- clearance [1]: 79.2 mL/min/kg
- half-life [1]: 12 min
- Vd [1]: 1 L/kg
- AUC [1]: 0.087 µM·h
- Cmax [1]: 61 nM

SMILES: CCOC(=O)c1cnc2ccc(N3CC(F)(F)C(F)(F)[C@@H]3c3cccc(F)c3)nn12 [X-164, (S)-ethyl 6-(3,3,4,4-tetrafluoro-2-(3-fluorophenyl)pyrrolidin-1-yl)imidazo[1,2-b]pyridazine-3-carboxylate]
- pIC50 (parental Ba/F3 cells): < 5.00
- pIC50 [2, 3]: 6.22

SMILES: O=C(NCCN1CCOCC1)c1cnc2ccc(N3C[C@@H](F)C[C@@H]3c3cccc(F)c3)nn12 [X-113]
- pIC50 (parental Ba/F3 cells): < 5.00
- pIC50 [2, 3]: 8.05

SMILES: CCS(=O)(=O)N1CCC(NC(=O)c2cnc3ccc(N4CCC[C@@H]4c4cccc(F)c4)nn23)CC1 [X-27]
- pIC50 (parental Ba/F3 cells): < 5.00
- pIC50 [2, 3]: 7.77

SMILES: O=C(N[C@@H]1CCOC1=O)c1cnc2ccc(N3CCC[C@@H]3c3cccc(F)c3)nn12 [X-100]
- pIC50 (parental Ba/F3 cells): < 5.00
- pIC50 [2, 3]: 7.57

SMILES: COC(=O)c1cnc2ccc(N3CCC[C@@H]3c3cccc(F)c3)nn12 [X-157]
- pIC50 (parental Ba/F3 cells): < 5.00
- pIC50 [2, 3]: 6.95

SMILES: CC(=O)NCC(=O)Nc1cnc2ccc(N3CCC[C@H]3c3cccc(F)c3)nn12 [X-201]
- pIC50 (parental Ba/F3 cells): < 5.00
- pIC50 [2, 3]: 6.41

SMILES: O=C(NCCF)c1cnc2ccc(N3CCC[C@@H]3c3cccc(F)c3)nn12 [X-96]
- pIC50 (parental Ba/F3 cells): < 5.00
- pIC50 [2, 3]: 8.15

SMILES: CCNS(=O)(=O)c1cnc2ccc(N3CCC[C@@H]3c3cccc(F)c3)nn12 [X-237, (R)-N-ethyl-6-(2-(3-fluorophenyl)pyrrolidin-1-yl)imidazo[1,2-b]pyridazine-3-sulfonamide]
- pIC50 (parental Ba/F3 cells): < 5.00
- pIC50 [2, 3]: 5.48

SMILES: O=C(NCC1CCCCC1)c1cnc2ccc(N3CCC[C@@H]3c3cccc(F)c3)nn12 [X-95]
- pIC50 (parental Ba/F3 cells): < 5.00
- pIC50 [2, 3]: 6.93

SMILES: O=C(NCC(F)(F)F)c1cnc2ccc(N3CCCC3c3cccc(F)c3)nn12 (stereo not shown) [X-111]
- pIC50 (parental Ba/F3 cells): < 5.00
- pIC50 [2, 3]: 7.89

SMILES: O=C(NOC1CCCCO1)c1cnc2ccc(N3CCC[C@@H]3c3cccc(F)c3)nn12 (stereo partly shown) [X-144]
- pIC50 (parental Ba/F3 cells): < 5.00
- pIC50 [2, 3]: 6.89

SMILES: COCCONC(=O)c1cnc2ccc(N3CCC[C@H]3c3cccc(F)c3)nn12 [X-148]
- pIC50 (parental Ba/F3 cells): < 5.00
- pIC50 [2, 3]: 7.55

SMILES: O=C(NOCC1CC1)c1cnc2ccc(N3CCC[C@@H]3c3cccc(F)c3)nn12 [X-143]
- pIC50 (parental Ba/F3 cells): < 5.00
- pIC50 [2, 3]: 7.35

SMILES: CC(C)(C)NC(=O)c1cnc2ccc(N3CCC[C@@H]3c3cccc(F)c3)nn12 [X-45]
- pIC50 (parental Ba/F3 cells): < 5.00
- pIC50 [2, 3]: 7.66

SMILES: Fc1cccc([C@H]2CCCN2c2ccc3ncc(Br)n3n2)c1 [X-1, (R)-3-bromo-6-(2-(3-fluorophenyl)pyrrolidin-1-yl)imidazo[1,2-b]pyridazine]
- pIC50 (parental Ba/F3 cells): < 5.00
- pIC50 [2, 3]: 6.50

SMILES: CC(C)CNC(=O)c1cnc2ccc(N3CCC[C@@H]3c3cccc(F)c3)nn12 [X-94]
- pIC50 (parental Ba/F3 cells): < 5.00
- pIC50 [2, 3]: 7.80

SMILES: O=C(NCc1nc2ccccc2s1)c1cnc2ccc(N3CCC[C@@H]3c3cccc(F)c3)nn12 [X-38]
- pIC50 (parental Ba/F3 cells): < 5.00
- pIC50 [2, 3]: 6.71

SMILES: CC(=O)N1CC[C@@H](NC(=O)c2cnc3ccc(N4CCC[C@@H]4c4cccc(F)c4)nn23)C1 [X-66]
- pIC50 (parental Ba/F3 cells): < 5.00
- pIC50 [2, 3]: 6.13

SMILES: COC(=O)[C@@H](CO)NC(=O)c1cnc2ccc(N3CCC[C@@H]3c3cccc(F)c3)nn12 [X-98]
- pIC50 (parental Ba/F3 cells): < 5.00
- pIC50 [2, 3]: 6.45

SMILES: COc1cccc(/C=C/C(=O)c2cnc3ccc(N4CCC[C@@H]4c4cccc(F)c4)nn23)n1 [X-131]
- pIC50 (parental Ba/F3 cells): 5.78
- pIC50 [2, 3]: 6.71

SMILES: NNC(=O)c1cnc2ccc(N3CCC[C@@H]3c3cccc(F)c3)nn12 [X-155]
- pIC50 (parental Ba/F3 cells): < 5.00
- pIC50 [2, 3]: 6.62

SMILES: CCOC(=O)c1cnc2ccc(N3C[C@@H](F)C[C@@H]3c3cc(F)cc(C#N)c3)nn12 [X-243]
- pIC50 (parental Ba/F3 cells): < 5.00
- pIC50 [2, 3]: 8.70

SMILES: CC1(C)CCC(CNC(=O)c2cnc3ccc(N4CCC[C@@H]4c4cccc(F)c4)nn23)O1 (stereo partly shown) [X-36]
- pIC50 (parental Ba/F3 cells): < 5.00
- pIC50 [2, 3]: 6.92

SMILES: CN(C)CCNC(=O)c1cnc2ccc(N3CCC[C@@H]3c3cccc(F)c3)nn12 [X-56]
- pIC50 (parental Ba/F3 cells): < 5.00
- pIC50 [2, 3]: 6.17

SMILES: CCONC(=O)c1cnc2ccc(N3CCCC3c3cccc(F)c3)nn12 (stereo not shown) [X-152, N-ethoxy-6-(2-(3-fluorophenyl)pyrrolidin-1-yl)imidazo[1,2-b]pyridazine-3-carboxamide]
- pIC50 (parental Ba/F3 cells): < 5.00
- pIC50 [2, 3]: 7.38

SMILES: CC(C)(CO)NC(=O)c1cnc2ccc(N3CCC[C@@H]3c3cccc(F)c3)nn12 [X-83]
- pIC50 (parental Ba/F3 cells): < 5.00
- pIC50 [2, 3]: 7.70

SMILES: O=C(NCCCN1CCOCC1)c1cnc2ccc(N3CCC[C@@H]3c3cccc(F)c3)nn12 [X-58]
- pIC50 (parental Ba/F3 cells): < 5.00
- pIC50 [2, 3]: 6.41

SMILES: CCOCC(=O)Nc1cnc2ccc(N3CCC[C@@H]3c3cccc(F)c3)nn12 [X-168, (R)-2-ethoxy-N-(6-(2-(3-fluorophenyl)pyrrolidin-1-yl)imidazo[1,2-b]pyridazin-3-yl)acetamide]
- pIC50 (parental Ba/F3 cells): < 5.00
- pIC50 [2, 3]: 7.77

SMILES: CC(C)S(=O)(=O)N1CCC(NC(=O)c2cnc3ccc(N4CCC[C@@H]4c4cccc(F)c4)nn23)CC1 [X-32]
- pIC50 (parental Ba/F3 cells): < 5.00
- pIC50 [2, 3]: 7.72

SMILES: COCCNC(=O)c1cnc2ccc(N3CCC[C@@H]3c3cccc(F)c3)nn12 [X-51]
- pIC50 (parental Ba/F3 cells): < 5.00
- pIC50 [2, 3]: 7.17

SMILES: O=C(NCCC(F)(F)F)c1cnc2ccc(N3CCC[C@@H]3c3cccc(F)c3)nn12 [X-76]
- pIC50 (parental Ba/F3 cells): < 5.00
- pIC50 [2, 3]: 7.47
